Test results taken from patent US12221646B2, “Method for the rapid determination of susceptibility or resistance of bacteria to antibiotics” (ABM TECHNOLOGIES, LLC, priority 2013, dated 2025).
Like-named read-outs stand apart in the source and are kept apart here.

Assays:
Type in all cases: cell-based
Acinetobacter baumannii [1] = experiment: Cell enlargement after one hour incubation with antibiotic (microgel, SYBR Gold, fluorescence microscopy), A. baumannii
Procedure: Each dose was correlated to susceptibility breakpoints established in Example 1. The incubated samples were then assessed under microscopy for enlargement. The criterion of enlargement/non-enlargement was determined by a comparison to a control dose of 0 μg/ml. […] Using the criterion of enlargement/non-enlargement and the correlated breakpoint concentrations, each of the 320 strains were correctly identified.

Klebsiella pneumoniae = experiment: Cell enlargement after incubation with antibiotic, K. pneumoniae; settings: correlated to CLSI MIC≤4 μg/ml
Procedure: Klebsiella pneumoniae, another significant pathogen in clinical settings, was also evaluated. […] Strains were considered to be resistant when no cell enlargement was presented at either concentration.

Acinetobacter baumannii [2] = experiment: MIC of ceftazidime by E-test in A. baumannii strains; settings: read-out: MIC determined by E-test
Pseudomonas aeruginosa = experiment: Cell enlargement after one hour incubation with antibiotic, P. aeruginosa
Procedure: Pseudomonas aeruginosa, a common source of dangerous nosocomial infections, was also evaluated. […] Those correlated breakpoint concentrations for enlargement were 0.5 μg/ml for susceptible strains and greater than 1.0 μg/ml for resistant strains.
P. aeruginosa was evaluated for the effect of carbapenems, meropenem and imipenem, which we corroborate that induce cell enlargement in the susceptible strains of this bacterium. CLSI breakpoint concentrations of susceptibility and resistance correspond to MICs≤2-≥8 μg/ml, respectively. For cell enlargement, the new breakpoint concentrations were much lower: ≤0.2->0.5 μg/ml, for susceptibility and resistance, respectively. One hundred and thirty strains of P. aeruginosa were studied, obtaining 97 susceptible, 14 intermediate and 19 resistant to meropenem, following the standard criterion of growth affectation as indicated by MIC-CL SI. All these strains were correctly categorized when using the new breakpoints for enlargement/non-enlargement.

CC(C)(O/N=C(\C(=O)N[C@@H]1C(=O)N2C(C(=O)[O-])=C(C[n+]3ccccc3)CS[C@H]12)c1csc(N)n1)C(=O)O [ceftazidime]
breakpoint concentration for cell enlargement, intermediate (Acinetobacter baumannii [1]; empirically correlated to CLSI MIC breakpoint 16 μg/ml): 4 µg/mL
breakpoint concentration for cell enlargement, susceptible (Acinetobacter baumannii [1]; empirically correlated to CLSI MIC breakpoint ≤8 μg/ml): ≤ 2 µg/mL
breakpoint concentration for cell enlargement, resistant (Acinetobacter baumannii [1]; empirically correlated to CLSI MIC breakpoint ≥32 μg/ml): ≥ 8 µg/mL
cell enlargement (Acinetobacter baumannii [1]; highly resistant strain, 1 h incubation, tested 2, 4, 8 μg/ml): did not demonstrate enlargement at any tested concentration
concentration from which cell enlargement is demonstrated (Acinetobacter baumannii [1]; intermediate strain, 1 h incubation, tested 2, 4, 8 μg/ml): 8 µg/mL
concentration from which cell enlargement is demonstrated (Acinetobacter baumannii [1]; resistant strain, 1 h incubation, tested 2, 4, 8 μg/ml): 8 µg/mL
concentration from which cell enlargement is demonstrated (Acinetobacter baumannii [1]; susceptible strain, 1 h incubation, tested 2, 4, 8 μg/ml): 2 µg/mL
breakpoint concentration for cell enlargement, susceptible strains (Klebsiella pneumoniae): 0.5 µg/mL
MIC (Acinetobacter baumannii [2]; highly resistant strain of A. baumannii (FIG. 2, fourth row)): > 256 µg/mL
MIC (Acinetobacter baumannii [2]; intermediate strain of A. baumannii (FIG. 2, second row)): 12 µg/mL
MIC (Acinetobacter baumannii [2]; susceptible strain of A. baumannii (FIG. 2, first row)): 2.5 µg/mL
cell enlargement, resistant strains (Pseudomonas aeruginosa; 1 h incubation with 0.5 μg/ml and 1 μg/ml, 5 strains): never appeared enlarged
cell enlargement, intermediate strains (Pseudomonas aeruginosa; 1 h incubation with 0.5 μg/ml and 1 μg/ml, 8 strains): only after 1 μg/ml
cell enlargement, susceptible strains (Pseudomonas aeruginosa; 1 h incubation with 0.5 μg/ml and 1 μg/ml, 117 strains): appeared enlarged
breakpoint concentration for cell enlargement, susceptible strains (Pseudomonas aeruginosa; ceftazidime, correlated to CLSI MIC≤8 μg/ml): 0.5 µg/mL
breakpoint concentration for cell enlargement, resistant strains (Pseudomonas aeruginosa; ceftazidime, correlated to CLSI MIC≥32 μg/ml): greater than 1.0 μg/ml

C[C@@H](O)[C@H]1C(=O)N2C(C(=O)O)=C(S[C@@H]3CN[C@H](C(=O)N(C)C)C3)[C@H](C)[C@H]12 [meropenem]
cell enlargement, intermediate strains (Pseudomonas aeruginosa; incubation with 0.2 μg/ml and 0.5 μg/ml, 14 strains): only after 0.5 μg/ml
cell enlargement, resistant strains (Pseudomonas aeruginosa; incubation with 0.2 μg/ml and 0.5 μg/ml, 19 strains): never appeared enlarged
cell enlargement, susceptible strains (Pseudomonas aeruginosa; incubation with 0.2 μg/ml and 0.5 μg/ml, 97 strains): appeared enlarged
